For this assay, the system named is BDF1 mice, P388 leukemia ip, median survival T/C. Kind of assay: NCI In Vivo Anticancer Drug Screen. Data for tumor model P388 Leukemia (intraperitoneal) in B6D2F1 (BDF1) mice. As to conditions: endpoint: median survival time, higher = longer survival. The essentials: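 Mice carrying the transplantable tumour receive compound or vehicle. Survival is followed in each arm, and the treated measure is divided by the vehicle measure.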

Setting [1] is: dose: 25.0 mg/kg/injection, schedule: Q04DX003 (ip), vehicle: saline with Tween-80.
[2] abbreviates: dose: 50.0 mg/kg/injection, schedule: Q04DX003 (ip), vehicle: saline with Tween-80.
[3] abbreviates: dose: 100.0 mg/kg/injection, schedule: Q04DX003 (ip), vehicle: saline with Tween-80.
The mark [4] stands for this setting: dose: 50.0 mg/kg/injection, schedule: Q01DX009 (ip), vehicle: saline.
Setting [5] is: dose: 100.0 mg/kg/injection, schedule: Q01DX009 (ip), vehicle: saline.
[6] abbreviates: dose: 200.0 mg/kg/injection, schedule: Q01DX009 (ip), vehicle: saline.
Where [7] appears, read: dose: 50.0 mg/kg/injection, schedule: Q01DX009 (ip), vehicle: saline with Tween-80.
Where [8] appears, read: dose: 400.0 mg/kg/injection, schedule: Q04DX003 (ip), vehicle: saline with Tween-80.

Where “and” joins values, the source holds several entries; their conditions need not be identical. Equal values may be shown once. Toxic doses and inconclusive results are not listed.

For the compound `CC(=O)Nc1ncnc2n[nH]c(C#N)c12`, the T/C (dose: 12.5 mg/kg/injection, schedule: Q04DX003 (ip), vehicle: saline with Tween-80) was 117 % of control; the T/C under setting [1] is 95 % of control; the T/C under setting [2] was 104 % of control; the T/C under setting [3] was 106 % of control.

Consider `O=c1c(O)c(-c2ccc(O)c(O)c2)oc2cc(O)cc(O)c12`, for which the T/C (dose: 15.0 mg/kg/injection, schedule: Q01DX009 (ip), vehicle: saline) is 118 % of control; the T/C (dose: 25.0 mg/kg/injection, schedule: Q01DX009 (ip), vehicle: saline) was 108 % of control; the T/C (dose: 30.0 mg/kg/injection, schedule: Q01DX009 (ip), vehicle: saline) is 109 % of control; the T/C under setting [4] was 97 % of control and 112 % of control; the T/C under setting [5] is 102 % of control and 117 % of control; the T/C (dose: 125.0 mg/kg/injection, schedule: Q01DX009 (ip), vehicle: saline) was 118 % of control. Besides, the T/C by setting is: under setting [6], 110 % of control; (dose: 300.0 mg/kg/injection, schedule: Q01DX009 (ip), vehicle: saline) 97 % of control.

For the compound `NC(=S)N/N=C/c1ccccn1`, the T/C (dose: 1.0 mg/kg/injection, schedule: Q01DX010 (ip), vehicle: carboxymethylcellulose (CMC)) was 110 % of control; the T/C (dose: 2.0 mg/kg/injection, schedule: Q01DX010 (ip), vehicle: carboxymethylcellulose (CMC)) is 110 % of control; the T/C (dose: 30.0 mg/kg/injection, schedule: Q01DX010 (ip), vehicle: saline) was 112 % of control.

Turning to `Nc1nc(N)c(-c2ccccc2)c(C(=O)O)n1`, the T/C is, setting by setting: (dose: 100.0 mg/kg/injection, schedule: Q01DX001 (ip), vehicle: Klucel (hydroxypropylcellulose) (HPC)) 109 % of control; (dose: 200.0 mg/kg/injection, schedule: Q01DX001 (ip), vehicle: Klucel (hydroxypropylcellulose) (HPC)) 118 % of control; (dose: 400.0 mg/kg/injection, schedule: Q01DX001 (ip), vehicle: Klucel (hydroxypropylcellulose) (HPC)) 113 % of control.

As for `CCN1C(=O)Nc2ccc(Cl)cc2C1(O)c1ccccc1` (configuration not stated), the T/C by setting is: under setting [7], 97 % of control; (dose: 200.0 mg/kg/injection, schedule: Q01DX009 (ip), vehicle: saline with Tween-80) 97 % of control.

In the case of `CC(=O)OCC(=O)[C@@]12OC(C)(C)O[C@@H]1C[C@H]1[C@@H]3CC(C=O)=C4C=C(OCCCl)CC[C@]4(C)[C@@]3(F)[C@@H](O)C[C@@]12C`, the T/C was 95 % of control (dose: 0.39 mg/kg/injection, schedule: Q01DX009 (ip), vehicle: Klucel (hydroxypropylcellulose) (HPC)); 107 % of control and 113 % of control (dose: 0.78 mg/kg/injection, schedule: Q01DX009 (ip), vehicle: Klucel (hydroxypropylcellulose) (HPC)); 106 % of control and 113 % of control (dose: 1.56 mg/kg/injection, schedule: Q01DX009 (ip), vehicle: Klucel (hydroxypropylcellulose) (HPC)); 104 % of control (dose: 2.3 mg/kg/injection, schedule: Q04DX003 (ip), vehicle: Klucel (hydroxypropylcellulose) (HPC)); 100 % of control (dose: 3.12 mg/kg/injection, schedule: Q01DX009 (ip), vehicle: Klucel (hydroxypropylcellulose) (HPC)); 105 % of control (dose: 3.13 mg/kg/injection, schedule: Q01DX009 (ip), vehicle: Klucel (hydroxypropylcellulose) (HPC)). For the same compound, the T/C (dose: 4.6 mg/kg/injection, schedule: Q04DX003 (ip), vehicle: Klucel (hydroxypropylcellulose) (HPC)) was 109 % of control; the T/C (dose: 6.25 mg/kg/injection, schedule: Q01DX009 (ip), vehicle: Klucel (hydroxypropylcellulose) (HPC)) was 122 % of control; the T/C (dose: 9.3 mg/kg/injection, schedule: Q04DX003 (ip), vehicle: Klucel (hydroxypropylcellulose) (HPC)) is 100 % of control; the T/C (dose: 12.5 mg/kg/injection, schedule: Q01DX009 (ip), vehicle: Klucel (hydroxypropylcellulose) (HPC)) is 124 % of control; the T/C (dose: 13.0 mg/kg/injection, schedule: Q04DX003 (ip), vehicle: Klucel (hydroxypropylcellulose) (HPC)) is 115 % of control; the T/C under setting [1] was 115 % of control. In addition, the T/C (dose: 30.0 mg/kg/injection, schedule: Q04DX003 (ip), vehicle: Klucel (hydroxypropylcellulose) (HPC)) is 115 % of control; the T/C (dose: 45.0 mg/kg/injection, schedule: Q04DX003 (ip), vehicle: Klucel (hydroxypropylcellulose) (HPC)) is 104 % of control; the T/C under setting [2] was 114 % of control; the T/C (dose: 70.0 mg/kg/injection, schedule: Q04DX003 (ip), vehicle: Klucel (hydroxypropylcellulose) (HPC)) is 108 % of control; the T/C under setting [3] was 124 % of control; the T/C (dose: 105.0 mg/kg/injection, schedule: Q04DX003 (ip), vehicle: Klucel (hydroxypropylcellulose) (HPC)) is 113 % of control. Further, the T/C (dose: 200.0 mg/kg/injection, schedule: Q04DX003 (ip), vehicle: saline with Tween-80) was 118 % of control and the T/C under setting [8] is 100 % of control.

As to `COC1C=CC=CC=C1`, the T/C is 113 % of control (dose: 15.0 mg/kg/injection, schedule: Q01DX009 (ip), vehicle: saline with Tween-80); 100 % of control (dose: 30.0 mg/kg/injection, schedule: Q01DX009 (ip), vehicle: saline with Tween-80); 113 % of control (dose: 60.0 mg/kg/injection, schedule: Q01DX009 (ip), vehicle: saline with Tween-80).

As for `CCCCOP1(=O)N(C)CCN1C`, the T/C is, setting by setting: under setting [4], 102 % of control; under setting [5], 105 % of control; under setting [6], 102 % of control.

Regarding `CCCN(CCC)CC(C)O` (configuration not stated), the T/C is, setting by setting: (dose: 50.0 mg/kg/injection, schedule: Q04DX003 (ip), vehicle: saline) 109 % of control; (dose: 100.0 mg/kg/injection, schedule: Q04DX003 (ip), vehicle: saline) 100 % of control; (dose: 200.0 mg/kg/injection, schedule: Q04DX003 (ip), vehicle: saline) 95 % of control.

As for `Nc1nc2c(ncn2C2OC(CO)C(O)C2O)c(=O)[nH]1` (configuration not stated), under setting [3], the T/C was 157 % of control.

For the compound `COC(=O)C(C)C(=O)OC`, the T/C is 100 % of control (dose: 100.0 mg/kg/injection, schedule: Q01DX001 (ip), vehicle: saline); 90 % of control under setting [5]; 100 % of control (dose: 200.0 mg/kg/injection, schedule: Q01DX001 (ip), vehicle: saline); 100 % of control under setting [6]; 113 % of control (dose: 400.0 mg/kg/injection, schedule: Q01DX001 (ip), vehicle: saline); 109 % of control (dose: 400.0 mg/kg/injection, schedule: Q01DX009 (ip), vehicle: saline).

As to `CCN(CC)C(=S)Oc1cc(C)nc(N2CCCC2)n1`, the T/C reads like this: (dose: 50.0 mg/kg/injection, schedule: Q01DX005 (ip), vehicle: saline with Tween-80) 95 % of control; (dose: 100.0 mg/kg/injection, schedule: Q01DX005 (ip), vehicle: saline with Tween-80) 101 % of control; (dose: 200.0 mg/kg/injection, schedule: Q01DX005 (ip), vehicle: saline with Tween-80) 97 % of control.

Consider `O=C/C(Cl)=C(/Cl)C(=O)O`, for which the T/C (dose: 6.25 mg/kg/injection, schedule: Q04DX002 (ip), vehicle: saline with Tween-80) was 110 % of control; the T/C (dose: 12.5 mg/kg/injection, schedule: Q04DX002 (ip), vehicle: saline with Tween-80) was 108 % of control; the T/C (dose: 25.0 mg/kg/injection, schedule: Q04DX002 (ip), vehicle: saline with Tween-80) was 103 % of control.

For the compound `CC(C)(C)c1ccc(S(=O)[O][Sn]([CH3])([CH3])[O]S(=O)c2ccc(C(C)(C)C)cc2)cc1` (configuration not stated), the T/C is, setting by setting: (dose: 12.5 mg/kg/injection, schedule: Q01DX001 (ip), vehicle: Klucel (hydroxypropylcellulose) (HPC)) 110 % of control; (dose: 25.0 mg/kg/injection, schedule: Q01DX001 (ip), vehicle: Klucel (hydroxypropylcellulose) (HPC)) 113 % of control; (dose: 50.0 mg/kg/injection, schedule: Q01DX001 (ip), vehicle: Klucel (hydroxypropylcellulose) (HPC)) 116 % of control.

Consider `[NH2-].[NH2-].[NH2-].[NH2-].[Pt+4]`, for which the T/C is 90 % of control (dose: 12.5 mg/kg/injection, schedule: Q01DX009 (ip), vehicle: saline with Tween-80); 100 % of control (dose: 25.0 mg/kg/injection, schedule: Q01DX009 (ip), vehicle: saline with Tween-80); 90 % of control under setting [7].

For `ClC1(Cl)Cc2ccccc21`, the T/C is, setting by setting: under setting [3], 109 % of control; (dose: 266.0 mg/kg/injection, schedule: Q04DX003 (ip), vehicle: saline with Tween-80) 108 % of control; under setting [8], 108 % of control; (dose: 600.0 mg/kg/injection, schedule: Q04DX003 (ip), vehicle: saline with Tween-80) 120 % of control.

Values taken from PubChem BioAssay AID328 (DTP/NCI, 2004).
